This is an account of results in patent US12522594B2, “2-heteroaryl-3-oxo-2,3-dihydropyridazine-4-carboxamides for the treatment of cancer” (Deutsches Krebsforschungszentrum, priority 2017, dated 2026).

The target of assay [1] is T1, AHR (Homo sapiens, UniProt P35869).
T1 sequence (P35869 11-848): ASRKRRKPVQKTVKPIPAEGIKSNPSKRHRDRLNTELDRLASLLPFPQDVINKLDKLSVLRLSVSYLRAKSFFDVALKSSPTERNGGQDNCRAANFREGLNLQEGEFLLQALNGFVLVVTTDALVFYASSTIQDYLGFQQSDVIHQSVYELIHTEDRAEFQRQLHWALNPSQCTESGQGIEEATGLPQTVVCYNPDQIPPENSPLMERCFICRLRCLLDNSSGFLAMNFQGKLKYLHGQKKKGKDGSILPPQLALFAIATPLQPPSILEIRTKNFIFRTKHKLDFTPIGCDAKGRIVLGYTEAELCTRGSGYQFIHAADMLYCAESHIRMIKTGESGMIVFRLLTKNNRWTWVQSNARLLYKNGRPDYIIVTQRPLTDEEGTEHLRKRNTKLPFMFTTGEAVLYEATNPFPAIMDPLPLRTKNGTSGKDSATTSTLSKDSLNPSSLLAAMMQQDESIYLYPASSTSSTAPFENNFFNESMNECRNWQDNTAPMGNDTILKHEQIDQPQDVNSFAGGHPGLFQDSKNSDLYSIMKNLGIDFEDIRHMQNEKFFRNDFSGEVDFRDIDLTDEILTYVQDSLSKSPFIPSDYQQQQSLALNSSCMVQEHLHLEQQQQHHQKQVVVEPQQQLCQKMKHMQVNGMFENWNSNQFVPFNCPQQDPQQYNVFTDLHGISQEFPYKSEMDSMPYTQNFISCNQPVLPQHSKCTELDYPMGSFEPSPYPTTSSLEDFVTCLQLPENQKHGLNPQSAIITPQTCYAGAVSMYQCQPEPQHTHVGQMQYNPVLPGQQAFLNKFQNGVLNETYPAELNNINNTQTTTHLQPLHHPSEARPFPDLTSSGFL
The assay can be described thus: In vitro assay 1: antagonism in human cell line (transactivation assay, U87 cells prestimulated with kynurenic acid, DRE firefly luciferase reporter). In kind it is cell-based. The arrangement: host or cells: U87 glioblastoma cells, stably transfected with DRE firefly luciferase and renilla reporter constructs. To be noted: 150 uM kynurenic acid, 20 hours, read-out: Assay 1: AHR-luc Hum Antagonism IC50. As for the experimental part:
(§1) Transactivation Assay in Human Cell Line (In Vitro Assays 1 and 2)
(§2) Transactivation assays were carried out in U87 glioblastoma cells (ATCC) endogenously expressing AHR. In addition the cells were stably transfected with an AHR inducible firefly luciferase reporter gene construct that carried AHR-binding sites (DRE) in its promoter and a renilla reporter gene construct with constitutively active promoter. Kynurenic acid is an endogenous AHR activating ligand and was used to prestimulate test cells prior to testing the antagonistic properties of compounds.
In Vitro Assay 1: Antagonism in Human Cell Line
Normalization was done by positive and negative controls.

For assay [2], the target named is T1, AHR. The assay can be described thus: In vitro assay 2: agonism in human cell line (transactivation assay, U87 cells, DRE firefly luciferase reporter). In kind it is cell-based. The arrangement: host or cells: U87 glioblastoma cells, stably transfected with DRE firefly luciferase and renilla reporter constructs. To be noted: no kynurenic acid, 20 hours, read-out: Assay 2: AHR-luc Hum Agonism IC50. As for the experimental part:
as §1, §2
In Vitro Assay 2: Agonism in Human Cell Line
As positive activation control cells were incubated with 300 uM kynurenic acid. Normalization was done by positive and negative controls.
A general note: In a reporter assay the amount or activity of a reporter protein is the signal.

Consider `C[C@@H](CO)NC(=O)c1cc(-c2ccc(C(F)(F)F)cc2)nn(-c2cnsc2)c1=O` [Example 205, N-[(2S)-1-Hydroxypropan-2-yl]-3-oxo-2-(1,2-thiazol-4-yl)-6-[4-(trifluoromethyl)phenyl]-2,3-dihydropyridazine-4-carboxamide], for which the figures for the IC50 in assay [1] and in assay [2] were 1.06 nM and > 20000 nM, respectively.
For `Cn1cc(-n2nc(-c3ccc(Cl)cc3)cc(C(=O)N[C@H](CO)C(N)=O)c2=O)cn1` [Example 289, N-[(2R)-1-Amino-3-hydroxy-1-oxopropan-2-yl]-6-(4-chlorophenyl)-2-(1-methyl-1H-pyrazol-4-yl)-3-oxo-2,3-dihydropyridazine-4-carboxamide], in that order: 875 nM and > 20000 nM.
For `Cc1ccc(-c2cc(C(=O)NC(CO)C(C)C)c(=O)n(-c3cnn(C)c3)n2)cc1` (single isomer, unassigned) [Example 3, N-(1-Hydroxy-3-methylbutan-2-yl)-6-(4-methylphenyl)-2-(1-methyl-1H-pyrazol-4-yl)-3-oxo-2,3-dihydropyridazine-4-carboxamide], in that order: 105 nM and > 20000 nM.
For `Cn1cc(-n2nc(-c3ccc(OC(F)(F)F)cc3)cc(C(=O)N[C@@H]3COC[C@H]3O)c2=O)cn1` (racemic) [Example 63, N-[(trans)-4-Hydroxytetrahydrofuran-3-yl]-2-(1-methyl-1H-pyrazol-4-yl)-3-oxo-6-[4-(trifluoromethoxy)phenyl]-2,3-dihydropyridazine-4-carboxamide], in that order: 81 nM and > 20000 nM.
For `O=C(NC(CO)C1CC1)c1cc(-c2ccc(Cl)cc2)nn(-c2cncc(F)c2)c1=O` (racemic) [Example 97, 6-(4-Chlorophenyl)-N-[(1RS)-1-cyclopropyl-2-hydroxyethyl]-2-(5-fluoropyridin-3-yl)-3-oxo-2,3-dihydropyridazine-4-carboxamide], the results for the IC50 in assay [1] and in assay [2] were 7.06 nM and > 20000 nM, respectively.
For `O=C(NC[C@H](O)C(F)(F)F)c1cc(-c2ccc(Cl)cc2)nn(-c2cnn(C(F)F)c2)c1=O` [Example 256, 6-(4-Chlorophenyl)-2-[1-(difluoromethyl)-1H-pyrazol-4-yl]-3-oxo-N-[(2S)-3,3,3-trifluoro-2-hydroxypropyl]-2,3-dihydropyridazine-4-carboxamide], in that order: 26 nM and > 20000 nM.
Turning to `C[C@@H](CO)NC(=O)c1cc(-c2ccc(Cl)cc2)nn(-c2cnn(C(F)F)c2)c1=O` [Example 272, 6-(4-Chlorophenyl)-2-[1-(difluoromethyl)-1H-pyrazol-4-yl]-N-[(2S)-1-hydroxypropan-2-yl]-3-oxo-2,3-dihydropyridazine-4-carboxamide], the IC50 in assay [1] is 91.1 nM; in assay [2], > 20000 nM.
For `CC(C)(O)C(NC(=O)c1cc(-c2ccc(Cl)cc2)nn(-c2cccnc2)c1=O)C(F)(F)F` (single isomer, unassigned; enantiomer 1) [Example 122, 6-(4-Chlorophenyl)-3-oxo-2-(pyridin-3-yl)-N-(1,1,1-trifluoro-3-hydroxy-3-methylbutan-2-yl)-2,3-dihydropyridazine-4-carboxamide, Enantiomer 1], in that order: 26.5 nM and > 20000 nM.
For `CC(C)(O)C(NC(=O)c1cc(-c2ccc(C(F)(F)F)cc2)nn(-c2cccnc2)c1=O)C(F)(F)F` (stereo not shown) [Example 213, 3-Oxo-2-(pyridin-3-yl)-N-(1,1,1-trifluoro-3-hydroxy-3-methylbutan-2-yl)-6-[4-(trifluoromethyl)phenyl]-2,3-dihydropyridazine-4-carboxamide], in that order: 1.92 nM and > 20000 nM.
For `C[C@@H](CO)NC(=O)c1cc(-c2ccc(C(F)F)cc2)nn(-c2cccnc2)c1=O` [Example 151, 6-[4-(Difluoromethyl)phenyl]-N-[(2S)-1-hydroxypropan-2-yl]-3-oxo-2-(pyridin-3-yl)-2,3-dihydropyridazine-4-carboxamide], in that order: 21.1 nM and > 20000 nM.
For `Cn1cc(-n2nc(-c3ccc(C(F)(F)F)cc3)cc(C(=O)N[C@@H]3CCC[C@@H]3O)c2=O)cn1` [Example 239, N-[(1R,2S)-2-Hydroxycyclopentyl]-2-(1-methyl-1H-pyrazol-4-yl)-3-oxo-6-[4-(trifluoromethyl)phenyl]-2,3-dihydropyridazine-4-carboxamide], the IC50 is 10 nM in assay [1] and > 20000 nM in assay [2].
Take `Cn1cc(-n2nc(-c3ccc(CF)cc3)cc(C(=O)NC[C@H](O)C(F)(F)F)c2=O)cn1` [Example 283, 6-[4-(Fluoromethyl)phenyl]-2-(1-methyl-1H-pyrazol-4-yl)-3-oxo-N-[(2S)-3,3,3-trifluoro-2-hydroxypropyl]-2,3-dihydropyridazine-4-carboxamide]: the IC50 was 430 nM in assay [1] and > 20000 nM in assay [2].
As for `O=C(N[C@H]1CCCC[C@H]1O)c1cc(-c2ccc(C(F)(F)F)cc2)nn(-c2cccnc2)c1=O` [Example 106, N-[(1S,2R)-2-Hydroxycyclohexyl]-3-oxo-2-(pyridin-3-yl)-6-[4-(trifluoromethyl)phenyl]-2,3-dihydropyridazine-4-carboxamide], in assay [2], the IC50 is > 20000 nM.
Still for that read-out and setting: then `O=C(NCC(O)C(F)(F)F)c1cc(-c2ccc(C(F)(F)F)cc2)nn(-c2cccnc2)c1=O` (racemic) [Example 108, 3-Oxo-2-(pyridin-3-yl)-N-[(2RS)-3,3,3-trifluoro-2-hydroxypropyl]-6-[4-(trifluoromethyl)phenyl]-2,3-dihydropyridazine-4-carboxamide], with > 20000 nM; and `O=C(NC[C@H](O)C(F)(F)F)c1cc(-c2ccc(C(F)(F)F)cc2)nn(-c2cccnc2)c1=O` [Example 117, 3-Oxo-2-(pyridin-3-yl)-N-[(2S)-3,3,3-trifluoro-2-hydroxypropyl]-6-[4-(trifluoromethyl)phenyl]-2,3-dihydropyridazine-4-carboxamide], with > 20000 nM.
On the same count and under the same terms, in the case of `CC(NC(=O)c1cc(-c2ccc(Cl)cc2)nn(-c2cccnc2)c1=O)C(O)C(F)(F)F` (single isomer, unassigned) [Example 300, 6-(4-Chlorophenyl)-3-oxo-2-(pyridin-3-yl)-N-(4,4,4-trifluoro-3-hydroxybutan-2-yl)-2,3-dihydropyridazine-4-carboxamide] it was > 20000 nM.
On to `C[C@@H](CO)NC(=O)c1cc(-c2ccc(C(F)(F)F)nc2)nn(-c2cccnc2)c1=O` [Example 166, N-[(2S)-1-Hydroxypropan-2-yl]-3-oxo-2-(pyridin-3-yl)-6-[6-(trifluoromethyl)pyridin-3-yl]-2,3-dihydropyridazine-4-carboxamide], for which the IC50 in assay [1] was 180 nM.
On the same count and under the same terms, then `O=C(N[C@@H]1COC[C@@H]1O)c1cc(-c2ccc(C(F)(F)F)cc2)nn(-c2cccnc2)c1=O` (single isomer, unassigned) [Example 252, (−)-N-cis-4-Hydroxytetra-hydrofuran-3-yl-3-oxo-2-(pyridin-3-yl)-6-[4-(trifluoromethyl)phenyl]-2,3-dihydropyridazine-4-carboxamide], with 18 nM; and `O=C(N[C@H]1COC[C@@H]1O)c1cc(-c2ccc(Cl)cc2)nn(-c2cccnc2)c1=O` (relative stereo) [Example 168, 6-(4-Chlorophenyl)-N-[(trans)-4-hydroxytetrahydrofuran-3-yl]-3-oxo-2-(pyridin-3-yl)-2,3-dihydropyridazine-4-carboxamide], with 240 nM.

The term IC50 denotes the concentration at which inhibition is half-maximal.
